Holding throughout (assay type): physicochemical
Data set [1] can be described thus: Physical stability on storage (crystalline form by XRPD before and after storage). The method, then:
(§1) Samples of Form CS2, Form CS4 and the prior art amorphous were stored under condition of 25° C./60% RH (open). Crystalline form and chemical impurity were tested.
(§2) Samples of Form CS2, Form CS4 and the prior art amorphous were stored under condition of 40° C./75% RH (open). Crystalline form and chemical impurity were tested.
(§3) Samples of Form CS2, Form CS4 and the prior art amorphous were stored under condition of 60° C./75% RH (open). Crystalline form and chemical impurity were tested.

Data set [2] can be described thus: Chemical stability on storage (purity / chemical impurity). The following applies: for Change of Purity: versus initial purity. The method, then:
as §1, §2, §3

Data set [3] in a line: Hygroscopicity by dynamic vapor sorption (DVS). As to conditions: for Weight gain under 80% Relative Humidity (Hygroscopicity): DVS, 25° C., 80% RH, about 10 mg of sample; for hygroscopicity as share of that of the prior art solid: relative to prior art solid, weight gain at 80% RH. The procedure: Dynamic Vapor Sorption (DVS) was collected via an SMS (Surface Measurement Systems Ltd.) intrinsic DVS instrument. Its control software is DVS-Intrinsic control software, and its analysis software is DVS-Intrinsic Analysis software. Typical Parameters for DVS test are as follows: • Temperature: 25° C. • Gas and flow rate: N2, 200 mL/min • dm/dt: 0.002%/min • RH range: 0% RH to 95% RH
Dynamic vapor sorption (DVS) was applied to test hygroscopicity of Form CS2, Form CS4 and the prior art amorphous with about 10 mg of samples.

A short description of data set [4]: Residual solvents test. The method, then:
Residual solvents of Form CS2, Form CS4 and the prior art amorphous were tested. […] According to the guideline of the International Council for Harmonization (ICH) on residual solvents, dichloromethane belongs to Class 2 solvents, and the residual solvent content must not exceed 600 ppm. It can be seen that the residue of dichloromethane in the amorphous solid is much higher than the limits of ICH guideline, and the amorphous not suitable for use as drug substance.

Data set [5] is described as follows: Particle size distribution. As to conditions: in Isopar G containing 0.2% lecithin. The method, then:
Form CS2 and Form CS4 of the present disclosure were added into 10 mL of Isopar G (containing 0.2% lecithin). The mixture was mixed thoroughly and transferred into the SDC. The measurement was started when the sample amount indicator is in appropriate position. The average particle diameter calculated by volume, the diameter at which 10% mass is comprised of smaller particles, the diameter at which 50% mass is comprised of smaller particles and the diameter at which 90% mass is comprised of smaller particles were obtained in particle size distribution test. Subsequently, the particle size distribution plot of crystalline forms was obtained.
MV: Average particle diameter calculated by volume.
D10: the size in microns below which 10 percent of the particles reside on a volume basis.
D50: the size in microns below which 50 percent of the particles reside on a volume basis, also known as the median diameter.
D90: the size in microns below which 90 percent of the particles reside on a volume basis.

Where [6] appears, read: 60° C./75% RH (open), 2 weeks, listed as prior art amorphous.

Molecules are shown by their SMILES. “Also recorded” adds a separate entry of the source. Read-outs that look alike come from different tables or passages of the source.

This is an account of results in patent publication US20210171568A1, “CRYSTALLINE FORMS OF SELECTIVE PROGESTERONE RECEPTOR MODULATOR, PROCESSES FOR PREPARATION THEREOF” (Crystal Pharmaceutical (Suzhou) Co., Ltd., priority 2017, published 2021).

For the compound `C[C@]12C[C@H](c3ccc(S(C)(=O)=O)cc3)C3=C4CCC(=O)C=C4CC[C@H]3[C@@H]1CC[C@@]2(O)C(F)(F)C(F)(F)F` [Amorphous, (11β, 17β)-17-hydroxy-11-[4-(methylsulfonyl)phenyl]-17-(pentafluoroethyl)estra-4,9-diene-3-one, reference compound], the “Solid Form after Storage” value in data set [1] (25° C./60% RH (open), 6 months) is “Amorphous”; in data set [1] (40° C./75% RH (open), 6 months), “Amorphous + Form CS2”; in data set [1] (40° C./75% RH (open), 6 months, listed as prior art amorphous), “partially converted to Form CS2”; in data set [1] (40° C./75% RH (open), 6 months, listed as prior art solid), “partially converts to Form CS2”; in data set [1] (60° C./75% RH (open), 2 weeks), “Amorphous + Form CS2”; in data set [1] (setting [6]) it was “partially converted to Form CS2”. Further, the “Solid Form after Storage” value in data set [1] (60° C./75% RH (open), 2 weeks, listed as prior art solid) is “partially converts to Form CS2”. For the same compound, the “Purity after 6 Months” value in data set [2] (25° C./60% RH (open), 6 months) turned out to be 97.88%. For the same compound, the “Change of Purity” value is reported as 0.80% in data set [2] (25° C./60% RH (open), 6 months); 0.80% in data set [2] (25° C./60% RH (open), 6 months, listed as amorphous); 0.80% in data set [2] (25° C./60% RH (open), 6 months, listed as prior art amorphous); 1.08% in data set [2] (40° C./75% RH (open), 3 months); 1.08% in data set [2] (40° C./75% RH (open), 3 months, listed as amorphous); 1.08% in data set [2] (40° C./75% RH (open), 3 months, listed as prior art amorphous). Further, the “Change of Purity” value in data set [2] (60° C./75% RH (open), 2 weeks) stood at 0.98%; in data set [2] (60° C./75% RH (open), 2 weeks, listed as amorphous) it was 0.98%; in data set [2] (setting [6]), 0.98%. For the same compound, in data set [2] (25° C./60% RH, 40° C./75% RH and 60° C./75% RH), the “stability on storage (in words)” value is “unstable”. In addition, the “Purity after 3 Months” value in data set [2] (40° C./75% RH (open), 3 months) came out at 97.60%. Also, in data set [2] (60° C./75% RH (open), 2 weeks), the “Purity after 2 Weeks” value was determined as 97.70%. Moreover, the entries for the “Weight gain under 80% Relative Humidity (Hygroscopicity)” value (“Weight gain under 80% Relative Humidity” for short) in data set [3] and in data set [3] (listed as prior art solids) were 1.89% and “up to 1.89%”, respectively. In addition, the “Residual solvents (in words)” value is “significantly higher than specification” in data set [4] and “exceeds the standard” in data set [4] (listed as prior art). In addition, in data set [4] (ICH limit 600 ppm), the dichloromethane residue worked out at 64185 ppm.

Take `C[C@]12C[C@H](c3ccc(S(C)(=O)=O)cc3)C3=C4CCC(=O)C=C4CC[C@H]3[C@@H]1CC[C@@]2(O)C(F)(F)C(F)(F)F` [Form CS2, (11β, 17β)-17-hydroxy-11-[4-(methylsulfonyl)phenyl]-17-(pentafluoroethyl)estra-4,9-diene-3-one]: the “Solid Form after Storage” value in data set [1] (25° C./60% RH (open), 6 months) was “remain unchanged; also recorded: Form CS2”. Also, in data set [1] (40° C./75% RH (open), 6 months), the “Solid Form after Storage” value was “remain unchanged; also recorded: Form CS2”. Moreover, the “Solid Form after Storage” value in data set [1] (60° C./75% RH (open), 2 weeks) is reported as “remain unchanged; also recorded: Form CS2”. For the same compound, in data set [2] (25° C./60% RH (open), 6 months), the “Purity after 6 Months” value was 98.58% and the “Change of Purity” value is listed as 0.06%. In addition, in data set [2] (25° C./60% RH (open), 6 months, listed as CS2), the “Change of Purity” value worked out at 0.06%. Moreover, in data set [2] (40° C./75% RH (open), 3 months), the “Purity after 3 Months” value stood at 98.37% and the “Change of Purity” value is reported as 0.27%. Moreover, the “Change of Purity” value in data set [2] (40° C./75% RH (open), 3 months, listed as CS2) came to 0.27%. In data set [2] (60° C./75% RH (open), 2 weeks), the “Purity after 2 Weeks” value is 98.59% and the “Change of Purity” value was determined as 0.05%. For the same compound, in data set [2] (60° C./75% RH (open), 2 weeks, listed as CS2), the “Change of Purity” value is 0.05%. In data set [3], the “Weight gain under 80% Relative Humidity” value turned out to be 0.23% and the “hygroscopicity as share of that of the prior art solid” value is “less than 15%”. Moreover, the “Residual solvents (in words)” value in data set [4] is given as “almost no residual solvent”. For the same compound, in data set [5], the D10 turned out to be 3.09 μm; the D50 worked out at 8.41 μm; the D90 worked out at 27.45 μm; the “MV, average particle diameter calculated by volume” value is listed as 13.16 μm.

As for `C[C@]12C[C@H](c3ccc(S(C)(=O)=O)cc3)C3=C4CCC(=O)C=C4CC[C@H]3[C@@H]1CC[C@@]2(O)C(F)(F)C(F)(F)F` [Form CS4, (11β, 17β)-17-hydroxy-11-[4-(methylsulfonyl)phenyl]-17-(pentafluoroethyl)estra-4,9-diene-3-one], in data set [1] (25° C./60% RH (open), 6 months), the “Solid Form after Storage” value was “remain unchanged; also recorded: Form CS4”. Moreover, in data set [1] (40° C./75% RH (open), 6 months), the “Solid Form after Storage” value is given as “remain unchanged; also recorded: Form CS4”. Further, the “Solid Form after Storage” value in data set [1] (60° C./75% RH (open), 2 weeks) is “remain unchanged; also recorded: Form CS4”. In data set [2] (25° C./60% RH (open), 6 months), the “Purity after 6 Months” value is on record as 99.31% and the “Change of Purity” value is given as 0.13%. In addition, in data set [2] (25° C./60% RH (open), 6 months, listed as CS4), the “Change of Purity” value is recorded as 0.13%. Further, in data set [2] (40° C./75% RH (open), 3 months), the “Purity after 3 Months” value is on record as 99.42% and the “Change of Purity” value is on record as 0.02%. Besides, the “Change of Purity” value in data set [2] (40° C./75% RH (open), 3 months, listed as CS4) is 0.02%. In addition, in data set [2] (60° C./75% RH (open), 2 weeks), the “Purity after 2 Weeks” value is reported as 99.47% and the “Change of Purity” value was 0.03%. In data set [2] (60° C./75% RH (open), 2 weeks, listed as CS4), the “Change of Purity” value was 0.03%. In data set [3], the “Weight gain under 80% Relative Humidity” value is 0.12% and the “hygroscopicity as share of that of the prior art solid” value is on record as “less than 10%”. The “Residual solvents (in words)” value in data set [4] is reported as “almost no residual solvent”. Further, in data set [5], the D10 was found to be 2.32 μm; the D50 came to 6.20 μm; the D90 is on record as 23.12 μm; the “MV, average particle diameter calculated by volume” value is recorded as 11.41 μm.
